Data set [1] deals with human colon cancer SW48 cells. In words: Proliferation suppressive action on human colon cancer SW48 cells (Trypan blue viable cell count). The format is cell-based. The note with it: 500 nM, 3 days; FIG. 4. The method, then: Human colon cancer SW48 cells were cultured in a 5% CO2 incubator at 37° C. using DMEM (FUJIFILM Wako Pure Chemical Corporation, Japan) supplemented with 10% bovine fetal serum (FBS, HyClone, GE Healthcare Life Sciences, Buckinghamshire, England) and 1% penicillin/streptomycin (FUJIFILM Wako Pure Chemical Corporation, respectively 100 units/mL, 100 μg/mL). SW48 cells were suspended in trypsin (Lonza, Walkersville, MD, USA), and 1×10^5 cells were seeded in a 6-well dish (TPP, Trasadingen, Switzerland). After 24 hr, a group of the compounds of the present invention (compound (I-4), compound (I-5), and compound (I-10)) diluted with a culture medium to a final concentration of 500 nM was allowed to act for 3 days. Proliferation of these cells was evaluated using Trypan blue (FUJIFILM Wako Pure Chemical Corporation, Japan) staining method and counting the number of viable cells using a Countess II automatic cell counter (Thermo Fisher Scientific, Waltham, MA).

Data set [2] concerns phosphorylated AMPK. The experiment in a line: Phosphorylated AMPK increasing action on human colon cancer SW48 cells (Western blot, phospho-AMPKα Thr172). The format is cell-based. The note with it: 100 nM, 2 days; FIG. 6. Here is the method:
Human colon cancer SW48 cells were cultured in a 5% CO2 incubator at 37° C. using DMEM (FUJIFILM Wako Pure Chemical Corporation, Japan) supplemented with 10% bovine fetal serum (FBS, HyClone, GE Healthcare Life Sciences, Buckinghamshire, England) and 1% penicillin/streptomycin (FUJIFILM Wako Pure Chemical Corporation, respectively 100 units/mL, 100 μg/mL). SW48 cells were suspended in trypsin (Lonza, Walkersville, MD, USA), and 1×10^5 cells were seeded in a 6-well dish (TPP, Trasadingen, Switzerland). After 24 hr, the cells were treated with the compounds of the present invention (compound (I-4), compound (I-5), and compound (I-10)) diluted with a culture medium to a final concentration of 100 nM and allowed to act for 2 days. Cellular proteins were dissolved in 1% SDS buffer supplemented with a protease inhibitor cocktail mix (Nacalai Tesque, Kyoto, Japan), and SDS-PAGE was performed. After transferring to PVDF membrane (Millipore, Billerica, MA, USA), Western blot analysis was performed using anti-phospho-AMPKα (Thr172, 1:1000, #2535; CST) antibody. GAPDH protein was analyzed as a loading control.

Data set [3] has as its system phosphorylated AMPK. In words: Phosphorylated AMPK increasing action on human lung cancer A549 cells (Western blot, phospho-AMPKα Thr172). It is filed as cell-based. The note with it: 100 nM to 1 μM, 3 days; FIG. 9. The method, then:
Human lung cancer A549 cells were cultured in a 5% CO2 incubator at 37° C. using DMEM (FUJIFILM Wako Pure Chemical Corporation, Japan) supplemented with 10% bovine fetal serum (FBS, HyClone, GE Healthcare Life Sciences, Buckinghamshire, England) and 1% penicillin/streptomycin (FUJIFILM Wako Pure Chemical Corporation, respectively 100 units/mL, 100 μg/mL). A549 cells were suspended in trypsin (Lonza, Walkersville, MD, USA), and 1×10^5 cells were seeded in a 6-well dish (TPP, Trasadingen, Switzerland). After 24 hr, they were treated with the compound of the present invention diluted in a culture medium to final concentrations of 100 nM to 1 μM and allowed to act for 3 days. Cellular proteins were dissolved in 1% SDS buffer supplemented with a protease inhibitor cocktail mix (Nacalai Tesque, Kyoto, Japan), and SDS-PAGE was performed. After transferring to PVDF membrane (Millipore, Billerica, MA, USA), Western blot analysis was performed using anti-phospho-AMPKα (Thr172, 1:1000, #2535; CST) antibody. GAPDH protein was analyzed as a loading control.
For orientation: In western blotting, separated proteins are transferred to a membrane and probed.

Data set [4] concerns human glioblastoma cell line U251. The experiment in a line: Proliferation of human glioblastoma U251 cells, compound alone or combined with temozolomide (viable cell count, CI/isobologram). It is filed as cell-based. Particulars: temozolomide 12.5, 25, 50 μM with compound 25, 50, 100 nM, 6 days; CI < 0.9 = synergistic; FIG. 2. The method, then:
According to the method described in a literature (Matsumura K, et al. BMC Cancer (2016) 16(1):748.), human glioblastoma cell line U251 was cultured in a 5% CO2 incubator at 37° C. using DMEM (FUJIFILM Wako Pure Chemical Corporation, Japan) supplemented with 10% bovine fetal serum (FBS, HyClone, GE Healthcare Life Sciences, Buckinghamshire, England) and 1% penicillin/streptomycin (FUJIFILM Wako Pure Chemical Corporation, respectively 100 units/mL, 100 μg/mL). Temozolomide (Sigma Chemical, St. Louis, MO, USA) which is used as a standard drug for the treatment of glioblastoma was dissolved at 200 mM using dimethyl sulfoxide (Nacalai Tesque, Kyoto, Japan) as a solvent. […] Proliferation of these cells was evaluated using Trypan blue (FUJIFILM Wako Pure Chemical Corporation, Japan) staining method and counting the number of viable cells using a Countess II automatic cell counter (Thermo Fisher Scientific, Waltham, MA). Combination index (CI) values of temozolomide and the compound of the present invention were calculated using CalcuSyn 2.11 software (Biosoft, Cambridge, UK), and Isobologram analysis was performed. The CI value of less than 0.9 was determined to be a synergistic effect, the CI value of 0.9 or more and less than 1.1 was determined to be an additive effect, and the CI value of 1.1 or more was determined to be an antagonistic effect.

The test system of data set [5] is glioblastoma transplanted tumor. The experiment in a line: In vivo antitumor effect in a mouse glioblastoma transplantation model (luciferase imaging). The note with it: C57BL6J mouse, 10 mg/kg intraperitoneally three times a week, three weeks after transplantation; FIG. 3. Here is the method:
According to the method described in a literature (Tanigawa S, et al. Cancer Gene Therapy (2021). https://doi.org/10.1038/s41417-020-00282-5), murine glioblastoma stem cells introduced with the Luciferase gene were established, and cultured as neurosphere cells in a 5% CO2 incubator at 37° C. using Neurobasal medium supplemented with B27 and N2 supplements (Gibco/Thermo Fisher Scientific, Waltham, MA, USA) and 10 ng/mL of EGF and bFGF (R&D Systems, Minneapolis, MN, USA). The neurospheres were made into a single cell suspension by Accutase (Innovative Cell Technologies, San Diego, CA, USA) treatment, and 1×10^3 cells suspended in 2 μL of PBS were transplanted into the cerebrum of a 6-week-old male C57BL6J mouse (Oriental Bioservice, Kyoto, Japan) fixed on a Stereotaxic Instrument (51730D; Stoelting Co., Wood Dale, IL, USA) using a 30-gauge Hamilton syringe with autoinjector (Legato130; KD Scientific, Holliston, MA, USA). […] Three weeks after cell transplantation, D-luciferin was administered intraperitoneally at a dose of 150 mg/kg and in vivo tumor size was evaluated using the IVIS Lumina XR imaging system (Summit Pharmaceuticals International, Tokyo, Japan).

Data set [6] relates to AMP/ATP ratio of human colon cancer SW48 cells. In words: AMP/ATP ratio increasing action on human colon cancer SW48 cells (AMP Glo / Cell Titer Glo). It is filed as cell-based. Particulars: 500 nM and 1 μM, 2 days; FIG. 5. The method, then: Human colon cancer SW48 cells were cultured in a 5% CO2 incubator at 37° C. using DMEM (FUJIFILM Wako Pure Chemical Corporation, Japan) supplemented with 10% bovine fetal serum (FBS, HyClone, GE Healthcare Life Sciences, Buckinghamshire, England) and 1% penicillin/streptomycin (FUJIFILM Wako Pure Chemical Corporation, respectively 100 units/mL, 100 μg/mL). SW48 cells were suspended in trypsin (Lonza, Walkersville, MD, USA), and 1×10^5 cells were seeded in a 6-well dish (TPP, Trasadingen, Switzerland). After 24 hr, the cells were treated with the compound of the present invention (compound (I-5)) diluted with a culture medium to final concentrations of 500 nM and 1 μM and allowed to act for 2 days. Intracellular AMP was measured with the AMP Glo assay kit (Promega, Madison, WI, USA), and intracellular ATP was measured with the Cell Titer Glo Luminescent Cell Viability Assay Kit (Promega, Madison, WI, USA) using a SYNERGY HT (BioTek Instruments, Inc. Winooski, VT, USA), and the AMP/ATP ratio was calculated.

Data set [7] has as its system human colon cancer SW48 transplanted tumors. The experiment in a line: In vivo antitumor effect in a human colon cancer SW48 cell subcutaneous transplantation model. The note with it: CB17 SCID mice, 20 mg/kg intraperitoneally every day from 4 days after transplantation, 3.5 weeks; FIG. 7(A),(B). Set-up: species or system mouse. The method, then: (§1) According to the method described in a literature (Ii H, et al. ChemMedChem. (2018) 13(2):155-163), human colon cancer SW48 cells were cultured in a 5% CO2 incubator at 37° C. using DMEM (FUJIFILM Wako Pure Chemical Corporation, Japan) supplemented with 10% bovine fetal serum (FBS, HyClone, GE Healthcare Life Sciences, Buckinghamshire, England) and 1% penicillin/streptomycin (FUJIFILM Wako Pure Chemical Corporation, respectively 100 units/mL, 100 μg/mL). SW48 cells were suspended in trypsin (Lonza, Walkersville, MD, USA), and 3×10^6 cells were suspended in 100 μL of PBS/Matrigel (1:1, Corning, Corning, NY, USA), and subcutaneously injected into 6-week-old male or female CB17 SCID mice (Japan Clea, Osaka, Japan) to create a subcutaneous transplantation tumor model. The compound of the present invention was dissolved in 10% ethanol (FUJIFILM Wako Pure Chemical Corporation, Japan), 10% dimethyl sulfoxide (Nacalai Tesque, Kyoto, Japan), 10% Cremophor EL (Sigma Chemical, St. Louis, MO, USA), and 70% saline (Nacalai Tesque, Kyoto, Japan), and administered intraperitoneally at a dose of 20 mg/kg every day from 4 days after transplantation. The major diameter and minor diameter were measured twice a week using calipers, and the tumor volume was calculated by 0.5× major diameter×minor diameter^2. 3.5 Weeks after cell transplantation, the tumor was removed and the weight was measured. […]

Data set [8] can be described thus: Body weight change on daily intraperitoneal administration in the SW48 transplantation model. It is filed as in vivo, mouse. Particulars: CB17 SCID mice, 20 mg/kg daily intraperitoneally for 3.5 weeks; FIG. 7(C). Here is the method:
as §1

For `COCCOCCOCCOCCCCCCCCCCCCNC(=O)c1csc(C)c1` [I-10, N-(13,16,19,22-tetraoxatricosan-1-yl)-5-methylthiophene-3-carboxamide], the “proliferation of human colon cancer SW48 cells (number of viable cells)” value (“proliferation … (number of viable cells)” for short) in data set [1] is “proliferation suppressive action”. For the same compound, in the data set with phosphorylated AMPK [2], the “phosphorylated AMPK in SW48 cells” value is “phosphorylated AMPK increasing action”.

As for `CCCCCCCCCCOCCOCCOCCOCCOCCCCCCCCCNC(=O)c1ccsc1` [I-16, N-(10,13,16,19,22-pentaoxadotriacontan-1-yl)thiophene-3-carboxamide], in the data set on phosphorylated AMPK [3], the “phosphorylated AMPK in A549 cells” value is given as “phosphorylated AMPK increasing action”.

On to `CCCCCCCCCCOCCOCCOCCOCCCCCCCCCCCCNC(=O)c1ccsc1` [I-5, N-(13,16,19,22-tetraoxadotriacontan-1-yl)thiophene-3-carboxamide], for which, in data set [4], the “combination effect with temozolomide on proliferation of U251 cells (combination index, isobologram)” value is listed as “synergistically potentiates the proliferation suppressive ability of temozolomide”. For the same compound, in data set [5], the “in vivo tumor size of transplanted glioblastoma” value is listed as “suppresses proliferation of glioblastoma transplanted tumor”. Further, in data set [1], the “proliferation … (number of viable cells)” value is on record as “proliferation suppressive action”. Further, the “AMP/ATP ratio of SW48 cells” value in data set [6] is given as “has action to increase the AMP/ATP ratio”. The “phosphorylated AMPK in SW48 cells” value in the data set on phosphorylated AMPK [2] is listed as “phosphorylated AMPK increasing action”. For the same compound, the “tumor volume and tumor mass of SW48 subcutaneous transplanted tumors” value in data set [7] is on record as “suppresses proliferation of human colon cancer SW48 transplanted tumors”. Also, the body weight change entry in data set [8] is reported as “no significant body weight change”.

Turning to `CCCCCCCCCOCCOCCOCCOCCCCCCCCCCCCNC(=O)c1ccsc1` [I-4, N-(13,16,19,22-tetraoxahentriacontan-1-yl)thiophene-3-carboxamide], the “proliferation … (number of viable cells)” value in data set [1] was “proliferation suppressive action”. Moreover, the “phosphorylated AMPK in SW48 cells” value in the data set on phosphorylated AMPK [2] was “phosphorylated AMPK increasing action”.
